From patent EP0659751A1, “Optically active azole derivatives, their production and use” (TAKEDA CHEMICAL INDUSTRIES, LTD., priority 1993, dated 1995)

System: Candida albicans TA
Assay: protective effect against experimental infection in mice
Type: in vivo, Crj:CDF₁ mice
Conditions: po, 168 h; mice inoculated i.v. with minimum lethal dose of Candida albicans TA; suspension in 0.5% CMC administered orally once immediately after infection; Reed and Muench method from survival rate 7 days after infection
Procedure: The protective effects of the compound of the present invention against the experimental infection in mice are shown in the following Table 1. Test Method: Five-week-old Crj:CDF₁ mice were inoculated with the minimum lethal dose of Candida albicans TA intravenously. The test compound was suspended in a solution of 0.5% sodium carboxymethylcellulose (CMC). The suspension was administered orally once immediately after infection. The activity was expressed in terms of ED₅₀ values calculated by the Reed and Muench method from the survival rate 7 days after infection.

Q: `C[C@@H](n1ncn(-c2ccc(N3CCN(c4ccc(OC(F)(F)C(F)F)cc4)CC3)cc2)c1=O)[C@](O)(Cn1cncn1)c1ccc(F)cc1F` [Example 15, 2-[(1R,2R)-2-(2,4-difluorophenyl)-2-hydroxy-1-methyl-3-(1H-1,2,4-triazol-1-yl)propyl]-4-[4-[4-[4-(1,1,2,2-tetrafluoroethoxy)phenyl]-1-piperazinyl]phenyl]-3(2H,4H)-1,2,4-triazolone] was tested. Which ED50 did it give?
A: 2.8 mg/kg

Q: With `C[C@@H](n1ncn(-c2ccc(OCC(F)(F)C(F)F)cc2)c1=O)[C@](O)(Cn1cncn1)c1ccccc1F` [Example 16, 2-[(1R,2R)-2-(2-fluorophenyl)-2-hydroxy-1-methyl-3-(1H-1,2,4-triazol-1-yl)propyl]-4-[4-(2,2,3,3-tetrafluoropropoxy)phenyl]-3(2H,4H)-1,2,4-triazolone] as the compound, how does the ED50 read?
A: 0.25 mg/kg

Q: `C[C@@H](n1ncn(-c2ccc(C(F)(F)F)cc2)c1=O)[C@](O)(Cn1cncn1)c1ccccc1F` [Example 17, 2-[(1R,2R)-2-(2-fluorophenyl)-2-hydroxy-1-methyl-3-(1H-1,2,4-triazol-1-yl)propyl]-4-(4-trifluoromethylphenyl)-3(2H,4H)-1,2,4-triazolone] was tested. Which ED50 did it give?
A: 0.22 mg/kg

Q: How did the ED50 turn out when `C[C@@H](n1ncn(-c2ccc(OC(F)(F)F)cc2)c1=O)[C@](O)(Cn1cncn1)c1ccccc1F` [Example 18, 2-[(1R,2R)-2-(2-fluorophenyl)-2-hydroxy-1-methyl-3-(1H-1,2,4-triazol-1-yl)propyl]-4-(4-trifluoromethoxyphenyl)-3(2H,4H)-1,2,4-triazolone] was run?
A: 0.18 mg/kg

Q: How did the ED50 turn out when `C[C@@H](n1ncn(-c2ccc(OCC(F)(F)F)cc2)c1=O)[C@](O)(Cn1cncn1)c1ccccc1F` [Example 19, 2-[(1R,2R)-2-(2-fluorophenyl)-2-hydroxy-1-methyl-3-(1H-1,2,4-triazol-1-yl)propyl]-4-[4-(2,2,2-trifluoroethoxy)phenyl]-3(2H,4H)-1,2,4-triazolone] was run?
A: 0.18 mg/kg

Q: Which ED50 does the source give for `C[C@@H](n1ncn(-c2ccc(OC(F)(F)C(F)F)cc2)c1=O)[C@](O)(Cn1cncn1)c1ccccc1F` [Example 20, 2-[(1R,2R)-2-(2-fluorophenyl)-2-hydroxy-1-methyl-3-(1H-1,2,4-triazol-1-yl)propyl]-4-[4-(1,1,2,2-tetrafluoroethoxy)phenyl]-3(2H,4H)-1,2,4-triazolone] here?
A: 0.18 mg/kg

Q: For `Cc1nn([C@H](C)[C@](O)(Cn2cncn2)c2ccccc2F)c(=O)n1-c1ccc(OC(F)(F)C(F)F)cc1` [Example 21, 2-[(1R,2R)-2-(2-fluorophenyl)-2-hydroxy-1-methyl-3-(1H-1,2,4-triazol-1-yl)propyl]-5-methyl-4-[4-(1,1,2,2-tetrafluoroethoxy)phenyl]-3(2H,4H)-1,2,4-triazolone], which ED50 is on record?
A: 0.21 mg/kg

Q: For `C[C@@H](n1cnn(-c2ccc(OC(F)(F)C(F)F)cc2)c1=O)[C@](O)(Cn1cncn1)c1ccccc1F` [Example 22, 4-[(1R,2R)-2-(2-fluorophenyl)-2-hydroxy-1-methyl-3-(1H-1,2,4-triazol-1-yl)propyl]-2-[4-(1,1,2,2-tetrafluoroethoxy)phenyl]-3(2H,4H)-1,2,4-triazolone], which ED50 is on record?
A: < 0.13 mg/kg

Q: How did the ED50 turn out when `C[C@@H](n1cnn(-c2ccc(OCC(F)(F)C(F)F)cc2)c1=O)[C@](O)(Cn1cncn1)c1ccccc1F` [Example 23, 4-[(1R,2R)-2-(2-fluorophenyl)-2-hydroxy-1-methyl-3-(1H-1,2,4-triazol-1-yl)propyl]-2-[4-(2,2,3,3-tetrafluoropropoxy)phenyl]-3(2H,4H)-1,2,4-triazolone] was run?
A: 0.16 mg/kg

Q: How did the ED50 turn out when `C[C@@H](n1ncn(-c2ccc(OC(F)(F)C(F)F)cc2)c1=O)[C@](O)(Cn1cncn1)c1ccc(F)cc1` [Example 25, 2-[(1R,2R)-2-(4-fluorophenyl)-2-hydroxy-1-methyl-3-(1H-1,2,4-triazol-1-yl)propyl]-4-[4-(1,1,2,2-tetrafluoroethoxy)phenyl]-3(2H,4H)-1,2,4-triazolone] was run?
A: 0.65 mg/kg

Q: Which ED50 does the source give for `Cc1nn([C@H](C)[C@](O)(Cn2cncn2)c2ccc(F)cc2)c(=O)n1-c1ccc(OC(F)(F)C(F)F)cc1` [Example 26, 2-[(1R,2R)-2-(4-fluorophenyl)-2-hydroxy-1-methyl-3-(1H-1,2,4-triazol-1-yl)propyl]-5-methyl-4-[4-(1,1,2,2-tetrafluoroethoxy)phenyl]-3(2H,4H)-1,2,4-triazolone] here?
A: 0.35 mg/kg

Q: Which ED50 does the source give for `C[C@@H](n1cnn(-c2ccc(OC(F)(F)C(F)F)cc2)c1=O)[C@](O)(Cn1cncn1)c1ccc(F)cc1` [Example 27, 4-[(1R,2R)-2-(4-fluorophenyl)-2-hydroxy-1-methyl-3-(1H-1,2,4-triazol-1-yl)propyl]-2-[4-(1,1,2,2-tetrafluoroethoxy)phenyl]-3(2H,4H)-1,2,4-triazolone] here?
A: 0.56 mg/kg

Q: With `C[C@@H](n1cnn(-c2ccc(OCC(F)(F)C(F)F)cc2)c1=O)[C@](O)(Cn1cncn1)c1ccc(F)cc1` [Example 28, 4-[(1R,2R)-2-(4-fluorophenyl)-2-hydroxy-1-methyl-3-(1H-1,2,4-triazol-1-yl)propyl]-2-[4-(2,2,3,3-tetrafluoropropoxy)phenyl]-3(2H,4H)-1,2,4-triazolone] as the compound, how does the ED50 read?
A: 0.71 mg/kg

Q: For `Cc1nn(-c2ccc(OC(F)(F)C(F)F)cc2)c(=O)n1[C@H](C)[C@](O)(Cn1cncn1)c1ccc(F)cc1F` [Example 29, 4-[(1R,2R)-2-(2,4-difluorophenyl)-2-hydroxy-1-methyl-3-(1H-1,2,4-triazol-1-yl)propyl]-5-methyl-2-[4-(1,1,2,2-tetrafluoroethoxy)phenyl]-3(2H,4H)-1,2,4-triazolone], which ED50 is on record?
A: 2 mg/kg
